# In publication PMC3705412, “PTP1B Inhibitory and Anti-Inflammatory Effects of Secondary Metabolites Isolated from the Marine-Derived Fungus Penicillium sp. JF-55” (Marine Drugs, 2013):
# What was measured:
# Type in all cases: cell-based, murine (C57BL/6 mice)
# Nrf2 = test: Western blotting of Nrf2 nuclear translocation in macrophages; conditions: 40 μM; 15, 30, 60, 90 and 120 min
# Experimental: Figure 7 The effects of penstyrylpyrone (1) on the nuclear translocation of Nrf2 (A) and anti-oxidant response element (ARE) activation (B) in murine peritoneal macrophages. Murine peritoneal macrophages were treated with 40 μM of penstyrylpyrone (1) for 15, 30, 60, 90 and 120 min. The nuclei were fractionated from the cytosol using PER-Mammalian Protein Extraction buffer. Nrf2 protein was detected using Western blotting analysis and representative blots of three independent experiments are shown. Quiescent cells transiently transfected with ARE-luciferase or control vector were incubated for 1 h with indicated concentrations of latifolin in the presence of 5% FBS. […]
# Murine peritoneal macrophages were homogenized (1:20, w:v) in PER-Mammalian Protein Extraction buffer (Pierce Biotechnology, Rockford, IL, USA) containing freshly added protease inhibitor cocktail I (EMD Biosciences, San Diego, CA, USA) and 1 mM phenylmethylsulfonyl fluoride (PMSF). […] The protein concentration was determined using the bicinchoninic acid (BCA) protein assay kit.
# Western blotting analysis was performed by lysing the cells in 20 mM Tris-HCl buffer (pH 7.4) containing a protease inhibitor mixture (0.1 mM PMSF, 5 mg/mL aprotinin, 5 mg/mL pepstatin A, and 1 mg/mL chymostatin). The protein concentration was determined using a Lowry protein assay kit (P5626; Sigma Chemical Co., St. Louis, MO, USA). […]
# HO-1 = test: Western blotting of HO-1 protein expression in macrophages
# Experimental: Figure 6 The effects of penstyrylpyrone (1) on the protein expression of HO-1 in murine peritoneal macrophages. Murine peritoneal macrophages were incubated for 12 h with the indicated concentrations of penstyrylpyrone (1). […] Representative blots of three independent experiments are shown. The data represent the mean ± SD of three experiments. * p < 0.05 compared with the control group.
# C57BL/6 mice were purchased from Orient Bio Co. (Sungnam, Kyung-Kido, Korea). TG-elicited peritoneal macrophages were harvested four days after intraperitoneal (i.p.) injection of 3 mL of TG [37]. Peritoneal lavage was performed using 8 mL of Hanks’ Balanced Salt Solution containing 10 U/mL heparin. The cells were distributed in Roswell Park Memorial Institute medium (RPMI) supplemented with 10% heat-inactivated FBS, in 6-well tissue culture plates (5 × 10^6 cells/mL).
# Western blotting analysis was performed by lysing the cells in 20 mM Tris-HCl buffer (pH 7.4) containing a protease inhibitor mixture (0.1 mM PMSF, 5 mg/mL aprotinin, 5 mg/mL pepstatin A, and 1 mg/mL chymostatin). The protein concentration was determined using a Lowry protein assay kit (P5626; Sigma Chemical Co., St. Louis, MO, USA). An equal amount of protein for each sample was resolved using 12% sodium dodecyl sulfate-polyacrylamide gel electrophoresis (SDS-PAGE) and then electrophoretically transferred onto a Hybond enhanced chemiluminescence (ECL) nitrocellulose membrane (Bio-Rad, Hercules, CA, USA). The membrane was blocked with 5% skimmed milk and sequentially incubated with primary antibody (Santa Cruz Biotechnology, Santa Cruz, CA, USA) and horseradish peroxidase-conjugated secondary antibody followed by ECL detection (Amersham Pharmacia Biotech, Piscataway, NJ, USA).
# [1] = system: murine peritoneal macrophages; test: Cell viability assay (MTT); design: dose or concentration left out as unconfirmed
# [2] = system: TNF-α production in murine peritoneal macrophages; test: TNF-α production in LPS-stimulated macrophages, ELISA; conditions: Mus musculus, Peritoneal macrophage; pre-treated 12 h, LPS 1 μg/mL 18 h
# Experimental: C57BL/6 mice were purchased from Orient Bio Co. (Sungnam, Kyung-Kido, Korea). TG-elicited peritoneal macrophages were harvested four days after intraperitoneal (i.p.) injection of 3 mL of TG [37]. Peritoneal lavage was performed using 8 mL of Hanks’ Balanced Salt Solution containing 10 U/mL heparin. The cells were distributed in Roswell Park Memorial Institute medium (RPMI) supplemented with 10% heat-inactivated FBS, in 6-well tissue culture plates (5 × 10^6 cells/mL). The level of PGE2, TNF-α or IL-1β present in each sample was determined using a commercially available kit from R & D Systems. The assay was performed according to the manufacturer’s instructions. Briefly, murine peritoneal macrophages were cultured in 24-well plates, pre-incubated for 12 h with different concentrations of compounds 1–3, and then stimulated for 18 h with LPS. The cell culture supernatants were then immediately collected after treatment and centrifuged at 13,000× g for 2 min to remove particulate matter. The medium was added to a 96-well plate pre-coated with affinity-purified PGE2-specific polyclonal antibodies or the medium was added to a 96-well plate pre-coated with affinity-purified polyclonal antibodies that were specific to mouse TNF-α or IL-1β. An enzyme-linked polyclonal antibody specific for PGE2, mouse TNF-α or IL-1β was added to the wells for 20 h, followed by a final wash to remove any unbound antibody-enzyme reagent. A substrate solution was added, and the intensity of the color produced, which was measured at 450 nm (the correction wavelength was set at 540 nm or 570 nm), was proportional to the amount of PGE2, TNF-α or IL-1β present.
smiles,measurement,setting,value
"COc1cc(/C=C/c2ccccc2)oc(=O)c1C [Penstyrylpyrone (1), penstyrylpyrone]",Nrf2 levels in nuclear fractions,Nrf2,gradual increase in Nrf2 levels
same,Time at which HO-1 protein expression began to increase,HO-1; 40 μM,6 h
same,Time of maximum level of HO-1 protein expression,HO-1; 40 μM,18 h
same,HO-1 protein expression,HO-1; 5–40 μM for 12 h,concentration-dependent increase
same,Concentration giving a considerable increase in HO-1 expression,HO-1; 12 h,above 10 μM
same,Cytotoxicity (cell viability),[1],non-cytotoxic
same,IC50,[2],18.3 µM
